# Measurements from patent publication EP0652009A1, “Identification and use of protease inhibitors” (ELI LILLY AND COMPANY, priority 1993, dated 1995).
# pIC50, pKi: −log10 of the molar value. Non-standard residues stand in square brackets, D forms with d. Residues, ends and D or L forms follow the SMILES beside them. Sta = CC(C)C[C@H](N)[C@@H](O)CC(=O)O; N(iPr)Gly = CC(C)NCC(=O)O
# Target: Cathepsin D (Homo sapiens, UniProt P07339)
# Assay: Assay 3: cathepsin D inhibition activity (non-cellular assay, chromogenic substrate)
# Assay type: biochemical
# Parameters: Frozen human placental tissue was thawed and homogenized; from tissue; host or cells: human placenta
# Settings: 4 µM test compound; inhibition of initial rate relative to control; cathepsin D from human placental tissue
# Description: A third non-cellular assay for determining in vitro aspartyl protease inhibitory activity is generally described in Jupp, R.A. et al., (1990) Biochem. J., 265:871-878 and Rao et al., J. Med. Chem. (1993), in press. The assay is carried out by incubating a test compound with a suitable aspartyl protease, such as cathepsin D, in the presence of a chromogenic substrate. The inhibition constant, Ki, value may then be determined by quantifying the competitive inhibition of the hydrolysis of the chromogenic substrate. A variety of chromogenic substrates that are useful for assaying aspartyl protease activity are discussed in Dunn, et al., (1986) Biochem. J., 237:899-906. A preferred chromogenic substrate for a cathepsin D assay is disclosed in Scarborough, P.E. et al., Protein Science, (1993), 2:264-276.
# Concentrations of substrate solutions and cleavage products may be verified using amino acid analysis. The enzyme preparations may be titrated with a tightly binding inhibitor to quantitate the active concentration of the enzyme. Enzyme concentrations are typically in the range of from 1-6 nM. Stock solutions of the test compound are prepared at concentrations ranging from 1.0 to 5.0 mg/mL, and then 50-100 µL portions of these stock solutions may be further diluted to a concentration in the range of 5 to 300 µM for rate determinations.
# […] Then, the test compounds are assayed over a concentration range of, for example, 5 to 300 µM for rate determinations.
# A decrease in absorbance in the range of 284-324 nm may be monitored using a spectrophotometer. Absorbance readings are typically taken at various timepoints. The initial velocities are then plotted versus the initial substrate concentration. […] Estimates of Ki may then be determined using the Dixon construction. Dixon, M., (1953) Biochem J., 55:170-171.
# If the ratio of the total active enzyme concentration to the estimated Ki value ([E]t/Ki) is less than 0.2, then the precise Ki value may be computed by using a non-linear curve fitting program based on the equation: v= Vmax [S]/[S] + Km (1 + [I]/Ki ) [formula] where v is the initial rate, [S] is the initial substrate concentration, [I] is the inhibitor concentration and Km and Ki are defined above. […] P.J.F., (1972) Biochem J., 127:321-333. This Assay is exemplfied in Assay 3.
# The homogenate was centrifuged at 10,000 rpm for 30 minutes in a Sorvall GSA rotor. The supernatant was adjusted to pH 3.7 using 5.7N HCl and then sodium acetate was added to a concentration of 0.1M. The resultant mixture was incubated for 30 minutes at 0°C, resulting in the formation of a precipitate. This precipitate was removed by centrifugation (30 minutes, 10,000 rpm). The acidic supernatent was applied to a chromatography column (pepstatinyl agarose equilibrated with 0.1M sodium acetate, pH 3.5, 0.1% Brij 35, and 1M NaCl), washed until the OD₂₈₀ of the effluent returned to baseline, and then eluted with 50mM Tris-HCl, pH 8.6, 0.1% Brij 35, and 1M NaCl. The eluent was dialyzed against 10mM sodium phosphate, pH 7.0, 0.1% Brij 35, and 0.1M NaCl, and then applied to a 1 mL DEAE-Sephacel column equilibrated with the same buffer. Cathepsin D was recovered in the breakthrough fraction.
# The enzyme mixture (125 µL buffer (0.1M sodium formate at pH 3.7), 1 µL of a 1mM solution of test compound, 4 µL of DMSO, enzyme and water to provide a total volume of 230 µL) was vortexed and prewarmed for four minutes before the addition of the chromogenic substrate. After warming, the enzyme mixture was added to 20 µL of a […] dilution of substrate solution. A control reaction mixture was similarly prepared without the addition of the test compound. The percent of inhibition of the initial rate of reaction in the presence of a particular concentration of test compound (i.e. 4 µM) may be determined for the test compound by monitoring the reaction mixture in parallel to the control reaction. […]
# Cathepsin D, sequence (P07339 169-412 limits assumed): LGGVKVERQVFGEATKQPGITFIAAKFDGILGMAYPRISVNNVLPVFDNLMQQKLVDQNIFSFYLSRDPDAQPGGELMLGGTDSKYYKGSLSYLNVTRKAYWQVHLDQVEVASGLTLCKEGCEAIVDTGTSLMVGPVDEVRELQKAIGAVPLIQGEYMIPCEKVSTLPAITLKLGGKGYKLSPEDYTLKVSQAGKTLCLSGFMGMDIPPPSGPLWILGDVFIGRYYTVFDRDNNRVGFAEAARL
# Cathepsin D, sequence (P07339 65-162 limits assumed): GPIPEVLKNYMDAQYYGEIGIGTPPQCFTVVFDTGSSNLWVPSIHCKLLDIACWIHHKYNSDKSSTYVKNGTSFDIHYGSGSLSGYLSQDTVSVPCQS
row,% inhibition at 4µ M [%],Compound
1,28,"Cc1ccc(C(=O)C2NCCc3ccccc32)cc1C(=O)N[C@@H](Cc1ccccc1)[C@H](O)CN1C[C@H]2CCCC[C@H]2C[C@H]1C(=O)NC(C)(C)C (relative stereo) [Example 30, [3S-(3R*,4aR*,8aR*,2'S*,3'R*)]-2-[2'-Hydroxy-3'-phenylmethyl-4'-aza-5'-oxo-5'-(3''-[1''',2''',3''',4'''-tetrahydroisoquinolin-1'''-ylcarbonyl]-6''-methyl)phenyl]pentyl-decahydroisoquinoline-3-N-t-butylcarboxamide]"

# Same assay, conditions: cathepsin D from human placental tissue, chromogenic substrate, pH 3.7, 37°C
row,Compound,pKi
1,"Cc1cccc2ccc(C(=O)N[C@@H](CC(N)=O)C(=O)N[C@@H](Cc3ccccc3)[C@H](O)Cc3ccccc3C(=O)NC(C)(C)C)nc12 [Example 9, [1S-(1R*,4R*,5S*)]-N-(1-(2-Amino-2-oxoethyl)-2-oxo-3-aza-4-phenylmethyl-5-hydroxy-6-(2-(1-t-butylamino-1-oxomethyl)phenyl)hexyl)-8-methylquinolin-2-yl carboxamide]",6.09
2,"CC(C)C(NC(=O)C(Cc1cccc2ccccc12)NC(=O)OC(C)(C)C)C(=O)NC(Cc1ccccc1)C(O)Cc1ccccc1C(=O)NC(C)(C)C (stereo not drawn) [Example 24, [2R-(2R*,3S*,6S*,9R*)]-N-t-Butyl-2-[2-hydroxy-3-phenylmethyl-4,7-diaza-5,8-dioxo-6-(1-methylethyl)-9-N(t-butoxycarbonyl)amino-10-naphth-1-yl]decyl benzamide]",7.38
3,"CC(C)C(NC(=O)C(Cc1cccc2ccccc12)NC(=O)OC(C)(C)C)C(=O)NC(Cc1ccccc1)C(O)Cc1ccccc1C(=O)NC(C)(C)C (stereo not drawn) [Example 23, [2R-(2R*,3S*,6S*,9S*)]-N-t-Butyl-2-[2-hydroxy-3-phenylmethyl-4,7-diaza-5,8-dioxo-6-(1-methylethyl)-9-N(t-butoxycarbonyl)amino-10-naphth-1-yl]decyl benzamide]",7.14

# Target: T1, Human brain cathepsin D (Homo sapiens, UniProt P07339)
# T1 construct: Human brain cathepsin D was purified from frozen post-mortem cortex; from tissue; host or cells: human post-mortem brain cortex
# T1 sequence (P07339 65-412): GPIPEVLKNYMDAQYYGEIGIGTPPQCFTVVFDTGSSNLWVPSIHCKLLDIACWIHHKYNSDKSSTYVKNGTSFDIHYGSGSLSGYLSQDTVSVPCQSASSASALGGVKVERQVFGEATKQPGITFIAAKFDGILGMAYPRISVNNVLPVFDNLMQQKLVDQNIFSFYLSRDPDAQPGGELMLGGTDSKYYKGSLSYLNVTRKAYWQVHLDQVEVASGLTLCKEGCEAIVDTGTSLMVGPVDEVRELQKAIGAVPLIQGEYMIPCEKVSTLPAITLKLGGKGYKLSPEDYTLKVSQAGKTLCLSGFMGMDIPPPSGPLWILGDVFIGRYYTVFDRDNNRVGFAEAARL
# Assay: Assay 1: cathepsin D inhibition activity (non-cellular assay, porcine renin tetradecapeptide substrate, RP-HPLC)
# Assay type: biochemical
# Settings: purified human brain cathepsin D, pH 4.5, 44 µM porcine renin tetradecapeptide, 37°C
# Description: An example of a non-cellular assay that may be used to determine in vitro aspartyl protease inhibitory activity reacts partially purified human brain cathepsin D with a substrate, e.g., porcine renin tetradecapeptide. The resultant reaction mixture is divided into portions and each portion is incubated for a different period of time. After the reaction is stopped, the turnover of substrate in each portion is determined using reverse-phase HPLC. Protease inhibition activity may be calculated based on the rates of substrate turnover. This assay is exemplified in Assay 1, below. Human brain cathepsin D was purified from frozen post-mortem cortex substantially in accordance with the method of Nixon and Morotta, (1984) J. Neurochem. 43:507-516. The cortex material was prepared and applied to a DEAE-Sepharose® column. The flow through fraction was dialyzed against 50mM Tris-HCl, pH 7.5, and applied to concanavalin A Sepharose® and eluted with 50mM Tris, pH 7.5, 0.5M methyl α-D-mannopyranoside. The eluted cathepsin D activity was dialyzed against 25mM Tris, pH 7.5, and stored at -40°C (Con A pool) until use. For each assay, 50 μL of the Con A pool was diluted to 270 μL in 200mM sodium citrate, pH 4.5, 150mM sodium chloride (NaCl), and incubated for 10 minutes at 4°C with 15 μL of compound stock diluted in dimethylsulfoxide (DMSO). The substrate, porcine renin tetradecapeptide ([…] [SEQ ID NO:3], Bachem Bioscience, Inc., Philadelphia, PA), was added to each reaction mixture to yield a final concentration of 44 μM in a total volume of 300 μL. The samples were incubated at 37°C for 0, 10, 20, or 30 minutes, and then boiled for 5 minutes to stop the reaction. The samples were centrifuged in a microcentrifuge for 10 minutes at 14,000 rpm at 4°C. After centrifugation, 200 μL of each reaction was injected onto […] column (Vydac, Hesperia, CA) with a Perkin Elmer ISS 100 autosampler and eluted with a gradient eluent of 0-50% CH3CN in 0.1% CF3CO2H at 2 mL/min. Peptide product peaks were monitored at 220nm with a Perkin Elmer LC 95 detector and integrated with Rainin Dynamax software in order to quantitate activity.
row,pIC50,Compound
1,< 6.60,"CC[C@H](C)[C@H](NC(=O)C[C@H](O)[C@H](CC(C)C)NC(=O)[C@@H](NC(=O)CNC(C)C)C(C)C)C(=O)N[C@@H](C)C(=O)N[C@H](C(=O)O)[C@@H](C)O [Example 48, (CH3)2CH-Gly-Val-Sta-Ile-Ala-Thr-OH] (H-[N(iPr)Gly]V[Sta]IAT-OH)"
2,< 6.60,"CC(C)C[C@H](NC(=O)[C@@H](NC(=O)CN)C(C)C)[C@@H](O)CC(=O)N[C@@H](C)C(=O)N[C@H](C(=O)O)[C@@H](C)O [Example 45, Gly-Val-Sta-Ala-Thr-OH] (H-GV[Sta]AT-OH)"
3,8.10,"CC(C)C[C@H](NC(=O)[C@@H](NC(=O)[C@@H](NC(=O)CNC(C)C)C(C)C)C(C)C)[C@@H](O)CC(=O)N[C@@H](C)C(=O)N[C@H](C(=O)O)[C@@H](C)O [Example 42, (CH3)2CH-Gly-Val-Val-Sta-Ala-Thr-OH] (H-[N(iPr)Gly]VV[Sta]AT-OH)"
4,7.28,"CC(C)C[C@H](NC(=O)[C@@H](NC(=O)[C@@H](NC(=O)CN)C(C)C)C(C)C)[C@@H](O)CC(=O)N[C@@H](C)C(=O)N[C@H](C(=O)O)[C@@H](C)O [Example 43, Gly-Val-Val-Sta-Ala-Thr-OH] (H-GVV[Sta]AT-OH)"
5,8.40,"CC(=O)NCC(=O)N[C@H](C(=O)N[C@H](C(=O)N[C@@H](CC(C)C)[C@@H](O)CC(=O)N[C@@H](C)C(=O)N[C@H](C(=O)O)[C@@H](C)O)C(C)C)C(C)C [Example 41, CH3C(O)-Gly-Val-Val-Sta-Ala-Thr-OH] (Ac-GVV[Sta]AT-OH)"
